# Where two headings read alike, the source gives them in different places.
# Columns and labels:
# JNK2 = JNK2 (Homo sapiens, UniProt P45984); assay: JNK2 homogeneous time-resolved fluorescence enzyme inhibition assay; format: biochemical; conditions: for R: ratio of IC50 values of JNK2 over JNK3: isoform selectivity against JNK2; for IC50: mean of ≥2 experiments, read-out: Biochemical inhibition IC50 JNK2
# Protocol: (§1) A 10-point titration of all compounds was carried out in 3-fold dilutions from 10 μM to 0.5 nM.
# CYP2D6 = CYP2D6 (Homo sapiens, UniProt P10635); assay: P450 cocktail inhibition assay, CYP2D6; format: in vitro ADME; conditions: at 10 μM
# Protocol: (§2) P450s inhibition for four major isoforms are evaluated using a cocktail inhibition assay where the metabolism of specific marker substrate (CYP1A2 phenaceten […] to acetaminophen); CYP2C9, tolbutamide hydroxylation to hydrocytolbutamide; CYP2D6, bufuralol hydroxylation to […]; and CYP3A4, midazolam hydroxylation to 1′-Hydroxymidazolam) in the presence or absence of 10 TM probe compound is evaluated. The concentration of each marker substrate is approximately its Km. […] Specific inhibitors for each isoform are included in each run to validate the system.
# [1] = Microsomal stability, mouse; format: in vitro ADME; conditions: mouse microsomes
# JNK1 = JNK1 (Homo sapiens, UniProt P45983); assay: JNK1 homogeneous time-resolved fluorescence enzyme inhibition assay; format: biochemical; conditions: for R: ratio of IC50 values of JNK1 over JNK3: isoform selectivity against JNK1
# Protocol: as §1
# JNK3α1 = JNK3α1 (Homo sapiens, UniProt P53779); format: biochemical
# Protocol: as §1
# CYP2C9 = CYP2C9 (Homo sapiens, UniProt P11712); assay: P450 cocktail inhibition assay, CYP2C9; format: in vitro ADME; conditions: at 10 μM
# Protocol: as §2
# CYP3A4 = CYP3A4 (Homo sapiens, UniProt P08684); assay: P450 cocktail inhibition assay, CYP3A4; format: in vitro ADME; conditions: at 10 μM
# Protocol: as §2
# p38α = p38α (Homo sapiens, UniProt Q16539); assay: p38 enzyme inhibition assay; conditions: mean of ≥2 experiments; read-out: Biochemical inhibition IC50 p38α
# [2] = Microsomal stability, human; format: in vitro ADME; conditions: human microsomes
# SHSY5Y cells = assay: MTT cytotoxicity assay; format: cell-based; design: dose or concentration left out as unconfirmed; conditions: 48 hrs, average of ≥2 experiments;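 further: compounds tested at 10 µM final concentration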
# Protocol: A day before the assay, cells were plated at 50,000/well in 96 well plates in the culture medium. […] After the incubation, cells were subjected to MTT assay using Vybrant MTT Cell Proliferation kit as directed by the vendor (Life Technologies).
# CYP1A2 = target: T1, CYP1A2 (Homo sapiens, UniProt P05177); assay: P450 cocktail inhibition assay, CYP1A2; format: in vitro ADME; conditions: at 10 μM
# T1 sequence (P05177 1-516): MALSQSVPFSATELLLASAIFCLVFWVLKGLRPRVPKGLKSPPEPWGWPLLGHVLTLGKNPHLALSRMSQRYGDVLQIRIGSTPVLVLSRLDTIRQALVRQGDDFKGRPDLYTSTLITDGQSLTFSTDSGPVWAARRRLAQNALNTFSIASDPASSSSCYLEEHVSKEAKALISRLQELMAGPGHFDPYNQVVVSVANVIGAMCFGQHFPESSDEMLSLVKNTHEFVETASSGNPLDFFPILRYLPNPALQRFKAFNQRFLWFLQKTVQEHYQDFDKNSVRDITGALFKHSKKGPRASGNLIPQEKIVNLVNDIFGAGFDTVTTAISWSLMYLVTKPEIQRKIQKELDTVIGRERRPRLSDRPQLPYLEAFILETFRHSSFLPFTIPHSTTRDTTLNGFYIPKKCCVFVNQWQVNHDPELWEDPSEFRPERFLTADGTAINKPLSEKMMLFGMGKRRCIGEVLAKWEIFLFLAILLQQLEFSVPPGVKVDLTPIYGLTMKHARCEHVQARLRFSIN
# Protocol: as §2
# [3] = mean of ≥2 experiments, read-out: Biochemical inhibition IC50 JNK1
# [4] = mean of ≥2 experiments, read-out: Biochemical inhibition IC50 JNK3
# Chain of p38α (Q16539 whole entry): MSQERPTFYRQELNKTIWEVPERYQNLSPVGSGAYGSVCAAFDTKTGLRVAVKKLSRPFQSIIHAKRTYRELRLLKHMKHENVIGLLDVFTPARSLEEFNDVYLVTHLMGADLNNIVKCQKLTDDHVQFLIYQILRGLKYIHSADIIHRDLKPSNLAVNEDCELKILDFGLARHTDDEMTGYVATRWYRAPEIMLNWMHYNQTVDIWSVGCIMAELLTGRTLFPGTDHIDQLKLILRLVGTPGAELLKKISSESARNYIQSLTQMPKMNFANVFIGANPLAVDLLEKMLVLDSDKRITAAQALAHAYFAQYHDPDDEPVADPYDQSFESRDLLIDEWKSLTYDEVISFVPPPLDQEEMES
# Chain of JNK3α1 (P53779 1-422 isoform P53779-2): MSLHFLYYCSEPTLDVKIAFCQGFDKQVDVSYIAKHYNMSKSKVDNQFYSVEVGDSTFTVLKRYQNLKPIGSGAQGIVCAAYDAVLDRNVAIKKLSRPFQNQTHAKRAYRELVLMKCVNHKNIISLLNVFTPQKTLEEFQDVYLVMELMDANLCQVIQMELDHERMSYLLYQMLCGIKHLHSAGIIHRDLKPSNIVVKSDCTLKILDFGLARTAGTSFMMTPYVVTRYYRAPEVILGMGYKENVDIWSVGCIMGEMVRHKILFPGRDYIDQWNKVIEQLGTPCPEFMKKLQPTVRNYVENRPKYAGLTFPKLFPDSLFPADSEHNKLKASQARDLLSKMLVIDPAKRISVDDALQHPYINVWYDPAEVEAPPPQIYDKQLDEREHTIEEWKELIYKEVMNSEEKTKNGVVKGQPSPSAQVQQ
# Chain of JNK1 (P45983 whole entry, canonical isoform): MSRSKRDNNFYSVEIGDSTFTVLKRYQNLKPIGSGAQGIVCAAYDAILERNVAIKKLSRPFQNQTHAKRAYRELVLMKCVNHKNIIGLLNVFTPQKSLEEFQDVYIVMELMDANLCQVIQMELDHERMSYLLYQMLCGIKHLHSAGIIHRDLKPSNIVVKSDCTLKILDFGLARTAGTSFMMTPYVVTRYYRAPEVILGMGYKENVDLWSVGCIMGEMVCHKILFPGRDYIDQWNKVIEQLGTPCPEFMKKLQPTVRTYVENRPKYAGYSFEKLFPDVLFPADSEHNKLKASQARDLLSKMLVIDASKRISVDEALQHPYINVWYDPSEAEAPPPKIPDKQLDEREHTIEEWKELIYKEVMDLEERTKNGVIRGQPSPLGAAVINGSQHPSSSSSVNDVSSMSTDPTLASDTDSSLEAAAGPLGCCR
# Chain of CYP2D6 (P10635 whole entry, canonical isoform): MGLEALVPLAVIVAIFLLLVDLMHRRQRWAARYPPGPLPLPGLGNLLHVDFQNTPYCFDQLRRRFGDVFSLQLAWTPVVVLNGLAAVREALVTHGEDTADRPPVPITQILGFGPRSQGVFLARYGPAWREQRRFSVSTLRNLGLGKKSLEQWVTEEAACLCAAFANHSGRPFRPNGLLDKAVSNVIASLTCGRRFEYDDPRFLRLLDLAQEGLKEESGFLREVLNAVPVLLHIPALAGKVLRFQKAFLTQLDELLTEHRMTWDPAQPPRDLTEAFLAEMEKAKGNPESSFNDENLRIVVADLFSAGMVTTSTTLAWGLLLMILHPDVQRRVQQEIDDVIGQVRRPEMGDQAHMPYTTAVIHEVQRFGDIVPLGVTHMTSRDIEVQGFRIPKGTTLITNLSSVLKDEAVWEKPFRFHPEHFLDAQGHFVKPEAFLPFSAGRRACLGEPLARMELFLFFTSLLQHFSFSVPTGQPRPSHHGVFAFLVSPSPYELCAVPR
# Chain of CYP2C9 (P11712 whole entry): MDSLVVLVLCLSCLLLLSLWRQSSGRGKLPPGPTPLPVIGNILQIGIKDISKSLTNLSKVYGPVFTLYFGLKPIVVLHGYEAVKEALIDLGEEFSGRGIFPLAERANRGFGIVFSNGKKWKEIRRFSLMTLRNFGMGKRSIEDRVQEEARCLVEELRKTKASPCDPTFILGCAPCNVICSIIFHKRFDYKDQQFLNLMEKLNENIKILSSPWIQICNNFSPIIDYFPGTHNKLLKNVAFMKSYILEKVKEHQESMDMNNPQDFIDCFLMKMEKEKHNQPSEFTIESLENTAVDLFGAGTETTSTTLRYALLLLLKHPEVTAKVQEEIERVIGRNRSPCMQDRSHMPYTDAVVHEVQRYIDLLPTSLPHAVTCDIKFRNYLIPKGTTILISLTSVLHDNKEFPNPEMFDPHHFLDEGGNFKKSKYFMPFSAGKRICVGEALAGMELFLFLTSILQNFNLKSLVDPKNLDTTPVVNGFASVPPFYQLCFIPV
# Chain of CYP3A4 (P08684 whole entry): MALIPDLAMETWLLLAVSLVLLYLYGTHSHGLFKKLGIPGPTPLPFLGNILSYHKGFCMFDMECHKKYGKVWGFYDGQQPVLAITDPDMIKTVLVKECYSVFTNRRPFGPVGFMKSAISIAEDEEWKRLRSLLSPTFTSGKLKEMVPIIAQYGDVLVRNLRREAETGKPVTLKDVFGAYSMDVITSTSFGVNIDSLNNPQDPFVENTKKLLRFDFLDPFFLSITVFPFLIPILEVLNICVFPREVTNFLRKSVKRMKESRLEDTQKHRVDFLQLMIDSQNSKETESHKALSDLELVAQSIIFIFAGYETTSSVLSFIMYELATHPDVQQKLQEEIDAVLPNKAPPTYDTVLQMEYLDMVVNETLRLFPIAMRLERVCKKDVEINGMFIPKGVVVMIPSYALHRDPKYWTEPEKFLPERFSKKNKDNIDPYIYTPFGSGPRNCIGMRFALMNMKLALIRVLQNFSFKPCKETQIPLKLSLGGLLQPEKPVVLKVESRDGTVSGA
# Chain of JNK2 (P45984 whole entry, canonical isoform): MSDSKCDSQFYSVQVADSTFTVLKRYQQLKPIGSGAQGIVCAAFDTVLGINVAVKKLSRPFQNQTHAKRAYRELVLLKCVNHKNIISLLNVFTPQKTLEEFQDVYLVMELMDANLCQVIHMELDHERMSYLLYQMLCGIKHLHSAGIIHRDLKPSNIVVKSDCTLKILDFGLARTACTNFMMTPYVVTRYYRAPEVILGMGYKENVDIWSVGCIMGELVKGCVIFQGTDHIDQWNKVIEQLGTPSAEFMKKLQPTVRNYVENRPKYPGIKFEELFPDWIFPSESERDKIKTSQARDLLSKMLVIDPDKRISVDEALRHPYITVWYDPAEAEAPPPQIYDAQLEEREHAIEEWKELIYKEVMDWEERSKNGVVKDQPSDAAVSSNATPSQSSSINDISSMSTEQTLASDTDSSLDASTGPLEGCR
SMILES,IC50 (JNK1; [3]) [µM],IC50 (JNK3α1; [4]) [µM],IC50 (p38α) [µM],R: ratio of IC50 values of JNK1 over JNK3 (JNK1),also measured
"CN1CCC(NC(=O)c2cc(-n3cc(NC(=O)Nc4ccccc4Cl)cn3)cs2)CC1 [Compound 14, 4-(4-(3-(2-chlorophenyl)ureido)-1H-pyrazol-1-yl)-N-(1-methylpiperidin-4-yl)thiophene-2-carboxamide]",4.2,0.084,> 20,–,R: ratio of IC50 values of JNK2 over JNK3 (JNK2): 33; IC50 (JNK2): 2.77 µM; CYP-450 % inh. 2D6 (CYP2D6): −5%; Mic. stability t1/2 Mouse [1]: 15 min; CYP-450 % inh. 2C9 (CYP2C9): −19%; CYP-450 % inh. 3A4 (CYP3A4): −34%; Mic. stability t1/2 Human [2]: 92 min; MTT cell viability (SHSY5Y cells): 89%; CYP-450 % inh. 1A2 (CYP1A2): −6%
"O=C(Nc1cnn(-c2csc(C(=O)N[C@@H]3CCNC3)c2)c1)Nc1ccccc1Cl [Compound 9, (R)-4-(4-(3-(2-chlorophenyl)ureido)-1H-pyrazol-1-yl)-N-(pyrrolidin-3-yl)thiophene-2-carboxamide]",5.9,0.132,–,–,–
"CN1CCC[C@H]1CNC(=O)c1cc(-n2cc(NC(=O)Nc3ccccc3Cl)cn2)cs1 [Compound 23, (S)-4-(4-(3-(2-chlorophenyl)ureido)-1H-pyrazol-1-yl)-N-((1-methylpyrrolidin-2-yl)methyl)thiophene-2-carboxamide]",9.1,0.085,–,107,–
"O=C(Nc1cnn(-c2cc(C(=O)NC3CNC3)cs2)c1)Nc1ccccc1Cl [Compound 5, N-(azetidin-3-yl)-5-(4-(3-(2-chlorophenyl)ureido)-1H-pyrazol-1-yl)thiophene-3-carboxamide]",–,0.2,–,–,–
"CC(C)N1CC[C@H](NC(=O)c2cc(-n3cc(NC(=O)Nc4ccccc4Cl)cn3)cs2)C1 [Compound 13, (S)-4-(4-(3-(2-chlorophenyl)ureido)-1H-pyrazol-1-yl)-N-(1-isopropylpyrrolidin-3-yl)thiophene-2-carboxamide]",0.72,0.012,–,60,–
"[2H]C([2H])([2H])N1CC[C@@H](NC(=O)c2cc(-n3cc(NC(=O)Nc4ccccc4Cl)cn3)cs2)C1 [Compound 11, (R)-4-(4-(3-(2-chlorophenyl)ureido)-1H-pyrazol-1-yl)-N-(1-(methyl-d3)pyrrolidin-3-yl)thiophene-2-carboxamide]",5.1,0.083,–,61,–
"O=C(Nc1cnn(-c2csc(C(=O)NC3CNC3)c2)c1)Nc1ccccc1Cl [Compound 6, N-(azetidin-3-yl)-4-(4-(3-(2-chlorophenyl)ureido)-1H-pyrazol-1-yl)thiophene-2-carboxamide]",3.6,0.05,> 20,72,"isoform selectivity against JNK1 (JNK1; JNK3 over JNK1, text): 72 fold"
"CN1CC[C@@H](NC(=O)c2cc(-n3cc(NC(=O)Nc4ccccc4Cl)cn3)cs2)C1 [Compound 10, (R)-4-(4-(3-(2-chlorophenyl)ureido)-1H-pyrazol-1-yl)-N-(1-methylpyrrolidin-3-yl)thiophene-2-carboxamide]",5.1,0.085,–,60,–
"CN1CCC(CNC(=O)c2cc(-n3cc(NC(=O)Nc4ccccc4Cl)cn3)cs2)CC1 [Compound 19, 4-(4-(3-(2-chlorophenyl)ureido)-1H-pyrazol-1-yl)-N-((1-methylpiperidin-4-yl)methyl)thiophene-2-carboxamide]",5.8,0.142,> 20,41,–
"CNC(=O)c1cc(-n2cc(NC(=O)Nc3ccccc3Cl)cn2)cs1 [Compound 7, 4-(4-(3-(2-chlorophenyl)ureido)-1H-pyrazol-1-yl)-N-methylthiophene-2-carboxamide]",–,–,> 20,–,IC50 (JNK1): > 20 µM
"CN1CC[C@H](NC(=O)c2cc(-n3cc(NC(=O)Nc4ccccc4Cl)cn3)cs2)C1 [Compound 12, (S)-4-(4-(3-(2-chlorophenyl)ureido)-1H-pyrazol-1-yl)-N-(1-methylpyrrolidin-3-yl)thiophene-2-carboxamide]",2.2,0.039,–,56,isoform selectivity against JNK2 vs JNK3 (JNK2): around 40 folds; R: ratio of IC50 values of JNK2 over JNK3 (JNK2): 39; IC50 (JNK2): 1.51 µM; CYP-450 % inh. 2D6 (CYP2D6): 20%; Mic. stability t1/2 Mouse [1]: 20 min; CYP-450 % inh. 2C9 (CYP2C9): −9%; CYP-450 % inh. 3A4 (CYP3A4): −18%; Mic. stability t1/2 Human [2]: 54 min; MTT cell viability (SHSY5Y cells): 94%; CYP-450 % inh. 1A2 (CYP1A2): −1%
"CC1(NC(=O)c2cc(-n3cc(NC(=O)Nc4ccccc4Cl)cn3)cs2)COC1 [Compound 18, 4-(4-(3-(2-chlorophenyl)ureido)-1H-pyrazol-1-yl)-N-(3-methyloxetan-3-yl)thiophene-2-carboxamide]",3.3,0.045,> 20,73,–
"O=C(Nc1cnn(-c2csc(C(=O)N[C@@H]3CCOC3)c2)c1)Nc1ccccc1Cl [Compound 16, (R)-4-(4-(3-(2-chlorophenyl)ureido)-1H-pyrazol-1-yl)-N-(tetrahydrofuran-3-yl)thiophene-2-carboxamide]",1.5,–,–,188,isoform selectivity against JNK2 vs JNK3 (JNK2): > 250 folds; R: ratio of IC50 values of JNK2 over JNK3 (JNK2): 253; IC50 (JNK2): 2.02 µM; CYP-450 % inh. 2D6 (CYP2D6): 1%; Mic. stability t1/2 Mouse [1]: 13 min; IC50 (JNK3α1; read-out: JNK3 inhibitory activity IC50): 0.008 µM; CYP-450 % inh. 2C9 (CYP2C9): 38%; CYP-450 % inh. 3A4 (CYP3A4): −20%; Mic. stability t1/2 Human [2]: 33 min; MTT cell viability (SHSY5Y cells): 112%; CYP-450 % inh. 1A2 (CYP1A2): 17%
"CN1CC[C@H](CNC(=O)c2cc(-n3cc(NC(=O)Nc4ccccc4Cl)cn3)cs2)C1 [Compound 21, (R)-4-(4-(3-(2-chlorophenyl)ureido)-1H-pyrazol-1-yl)-N-((1-methylpyrrolidin-3-yl)methyl)thiophene-2-carboxamide]",10.3,0.222,–,46,–
"O=C(Nc1cnn(-c2csc(C(=O)NCC3CCNCC3)c2)c1)Nc1ccccc1Cl [Compound 20, 4-(4-(3-(2-chlorophenyl)ureido)-1H-pyrazol-1-yl)-N-(piperidin-4-ylmethyl)thiophene-2-carboxamide]",6.6,–,> 20,–,–
"O=C(Nc1cnn(-c2ccc(C(=O)NC3CNC3)s2)c1)Nc1ccccc1Cl [Compound 4, N-(azetidin-3-yl)-5-(4-(3-(2-chlorophenyl)ureido)-1H-pyrazol-1-yl)thiophene-2-carboxamide]",–,0.8,–,–,–
"O=C(Nc1cnn(-c2csc(C(=O)NC[C@H]3CCOC3)c2)c1)Nc1ccccc1Cl [Compound 22, (R)-4-(4-(3-(2-chlorophenyl)ureido)-1H-pyrazol-1-yl)-N-((tetrahydrofuran-3-yl)methyl)thiophene-2-carboxamide]",2.2,0.071,–,31,–
"O=C(Nc1cnn(-c2nc(C(=O)NC3CNC3)cs2)c1)Nc1ccccc1Cl [Compound 3, N-(azetidin-3-yl)-2-(4-(3-(2-chlorophenyl)ureido)-1H-pyrazol-1-yl)thiazole-4-carboxamide]",–,–,–,–,"inhibition of JNK1 (JNK1; in words, FIG. 3): no inhibition; inhibition of JNK3 (JNK3α1; in words, FIG. 3): no inhibition"

# From patent US20240246942A1, “KINASE INHIBITORS FOR THE TREATMENT OF NEURODEGENERATIVE DISEASES” (priority 2020, published 2024)
